{"source": "patent US6034058A", "about": "“Semi-synthetic alanyl dilemnin analogs” (priority 1998, dated 2000)", "key": {"[1]": {"molecular_target": "elongation factor-1α (EF-1α) (Homo sapiens, UniProt P68104)", "sequence (P68104 whole entry)": "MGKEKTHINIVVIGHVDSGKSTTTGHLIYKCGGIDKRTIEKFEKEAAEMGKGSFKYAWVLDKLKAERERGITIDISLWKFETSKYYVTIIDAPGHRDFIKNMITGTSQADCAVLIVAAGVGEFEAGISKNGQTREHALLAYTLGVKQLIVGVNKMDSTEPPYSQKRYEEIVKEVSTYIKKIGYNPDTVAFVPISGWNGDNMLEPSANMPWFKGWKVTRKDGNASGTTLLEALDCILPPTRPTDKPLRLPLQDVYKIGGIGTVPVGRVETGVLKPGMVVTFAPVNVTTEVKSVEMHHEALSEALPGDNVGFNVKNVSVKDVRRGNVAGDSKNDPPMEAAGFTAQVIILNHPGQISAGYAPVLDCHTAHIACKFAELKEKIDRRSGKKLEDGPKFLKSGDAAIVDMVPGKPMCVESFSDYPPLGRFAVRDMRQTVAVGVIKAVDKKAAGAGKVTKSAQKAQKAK", "settings": "GEP-dependent manner; cited from earlier work"}, "DNA and RNA viruses": {"test_system": "DNA and RNA viruses", "settings": "against DNA and RNA viruses; cited from earlier work"}, "L1210": {"test_system": "L1210", "type": "cell-based", "settings": "for L1210, IC90: L1210 cells, cytotoxicity"}, "[2]": {"settings": "in vitro; cited from earlier work"}, "Nb2 node lymphoma cells": {"test_system": "Nb2 node lymphoma cells", "settings": "cited from earlier work"}}, "note": "Numbered stars: 1 amine (or outer) side, 2 acyl side, 3 side chain; on linkers, the order of the positions; unused ones are H or OH. Bridge positions count the residues as written; N and C are the ends. Square brackets hold non-standard residues; d marks the D form. Peptide text beside a SMILES is read from it. X1 = CC[C@H](C)[C@@H](N[*:1])[C@@H](O)CC(=O)O[C@H](C(=O)[C@H](C)C(=O)[*:2])C(C)C; NMeY = CN[C@@H](Cc1ccc(O)cc1)C(=O)O; dNMeL = CN[C@H](CC(C)C)C(=O)O", "data": [{"molecule": "CC[C@H](C)[C@H]1NC(=O)[C@@H](NC(=O)[C@@H](CC(C)C)NC)[C@@H](C)OC(=O)[C@H](Cc2ccc(OC)cc2)N(C)C(=O)[C@@H]2CCCN2C(=O)[C@H](CC(C)C)NC(=O)[C@@H](C)C(=O)[C@H](C(C)C)OC(=O)C[C@@H]1O", "note": "[Didemnin A] (H-[dNMeL]T[X1]LP[NMeY](Me); ester 2-C)", "values": [{"measurement": "binding to EF-1α", "setting": "[1]", "result": "binds elongation factor-1α (EF-1α)"}, {"measurement": "antiviral activity", "setting": "DNA and RNA viruses", "result": "exhibit antiviral activity"}, {"measurement": "L1210, IC90", "setting": "L1210", "result": 75, "unit": "ng/mL"}]}, {"molecule": "CC[C@H](C)[C@H]1NC(=O)[C@@H](NC(=O)[C@@H](CC(C)C)N(C)C(=O)[C@@H]2CCCN2C(=O)C(C)O)[C@@H](C)OC(=O)[C@H](Cc2ccc(OC)cc2)N(C)C(=O)[C@@H]2CCCN2C(=O)[C@H](CC(C)C)NC(=O)[C@@H](C)C(=O)[C@H](C(C)C)OC(=O)C[C@@H]1O", "note": "(stereo partly shown) [Didemnin B]", "values": [{"measurement": "antiviral activity", "setting": "DNA and RNA viruses", "result": "exhibit antiviral activity"}, {"measurement": "L1210, IC90", "setting": "L1210", "result": 7, "unit": "ng/mL"}, {"measurement": "cytotoxicity relative to didemnin A", "setting": "[2]", "result": "approximately twenty times more cytotoxic than didemnin A"}, {"measurement": "binding to a site on Nb2 node lymphoma cells", "setting": "Nb2 node lymphoma cells", "result": "binds to a site on Nb2 node lymphoma cells"}]}, {"molecule": "L-Alaninyl-didemnin A [Alaninyl DA]", "values": [{"measurement": "L1210, IC90", "setting": "L1210", "result": 8, "unit": "ng/mL"}]}, {"molecule": "L-[Alaninyl^9 ] didemnin B [[Ala^9]DB]", "values": [{"measurement": "relative bioactivity among the didemnins synthesized", "setting": "L1210; preliminary assay results", "result": "the most active of the didemnins synthesized thus far"}]}, {"molecule": "L-glutaminyl-L-[alaninyl^9 ]didemnin B [Gln-[Ala^9]DB]", "values": [{"measurement": "L1210, IC90", "setting": "L1210", "result": 200, "unit": "ng/mL"}]}, {"molecule": "L-glutaminyl-L-alaninyl-didemnin A [Glutaminyl-AlaDA]", "values": [{"measurement": "L1210, IC90", "setting": "L1210", "result": 25, "unit": "ng/mL"}]}, {"molecule": "L-pyroglutamyl-L-[alaninyl^9 ] didemnin B [pGlu-[Ala^9]DB]", "values": [{"measurement": "L1210, IC90", "setting": "L1210", "result": 500, "unit": "ng/mL"}]}, {"molecule": "N-Benzyloxycarbonly-L-[Alaninyl^9 ]didemnin B [Cbz-[Ala^9]DB]", "values": [{"measurement": "L1210, IC90", "setting": "L1210", "result": 2, "unit": "ng/mL"}]}, {"molecule": "N-Benzyloxycarbonyl-L-alaninyl-didemnin A [Cbz-Alaninyl DA]", "values": [{"measurement": "L1210, IC90", "setting": "L1210", "result": 3, "unit": "ng/mL"}]}, {"molecule": "N-Benzyloxycarbonyl-L-glutaminyl-didemnin A [Cbz-Glutaminyl DA]", "values": [{"measurement": "L1210, IC90", "setting": "L1210", "result": 8, "unit": "ng/mL"}]}, {"molecule": "Pro-Didemnin A [Prolyl DA]", "values": [{"measurement": "L1210, IC90", "setting": "L1210", "result": 12, "unit": "ng/mL"}]}]}
